According to paper PMC10700347, “Semisynthesis of 5-O-ester derivatives of renieramycin T and their cytotoxicity against non-small-cell lung cancer cell lines” (Scientific Reports, 2023):
Where two headings read alike, the source gives them in different places.

Assays:
Type in all cases: cell-based
[1] = system: H292 non-small-cell lung cancer cell line; assay: cells; conditions: H292, MTT, 72 h, read-out: IC50 ± S.D. H292
Procedure: (§1) The in vitro cytotoxicity of all the semisynthesized esters and their precursors against H292 and H460 human NSCLC cell lines was analyzed based on the mitochondrial dehydrogenase activity via the MTT assay[43] (Table 1). The compounds were tested at doses of 1–250 nM. Cisplatin and doxorubicin, which are the standard chemotherapeutic drugs for the treatment of NSCLC, were used as positive controls. […] However, the extended use of 1 is limited by the concerns for unwanted necrosis, which is an unprogrammed form of cell death caused by the presence of two quinone moieties. […] The IC50 values of the 5-O-ester derivatives 3a, 3b, 3d, 3h, 3i, and 3k were in the same range as the mother compound 1.
(§2) The in vitro cytotoxicity of compounds 3a–3o, 4a, and 4b was determined against the H292 and H460 NSCLC cell lines by the MTT colorimetric assay. Each compound was dissolved in DMSO to prepare a 10 mM stock solution. Both the H292 and H460 cells were cultured in RPMI 1640 medium supplemented with 2 mM L-glutamine, 10% FBS, and 100 units/mL of penicillin–streptomycin at 37 °C under 5% CO2. The NSCLC cells were trypsinized and seeded with a density of 5 × 10^3 cells/well in a 96-well plate, followed by overnight incubation. Serial dilutions of the test compounds ranging from 1 to 250 nM were prepared in the presence of DMSO (< 0.2% v/v). […] After incubation, formazan crystals were solubilized by adding 100 µL of DMSO, and their absorbance was measured at 570 nm by a spectrophotometric microtiter plate reader (PerkinElmer Victor 3 1420 Multilabel Plate Counter). Cell viability was calculated as the percentage of nontreated control cells. The mean IC50 values were obtained from three independent experiments. Each experiment was conducted in triplicate with at least five concentrations of the tested compounds. The GraphPad Prism software (version 5) was used to calculate the average IC50 and standard deviation (S.D.) values for each experiment. Cisplatin and doxorubicin were used as the positive controls, while 0.2% DMSO served as the negative control.

[2] = system: H460 non-small-cell lung cancer cell line; assay: cells; conditions: H460, MTT, 72 h, read-out: IC50 ± S.D. H460
Procedure: as §1, §2

[3] = system: dermal papilla (DP) cell line; assay: MTT cell viability on normal cell line DP; conditions: 72 h
Procedure: (§3) DP and BEAS-2B were seeded into 96-well plates at densities of 1 × 10^4 cells per well, while HaCaT cells were seeded at densities of 5 × 10^3 cells per well. The cells were allowed to adhere for 24 h. Subsequently, the cells were treated with various concentrations of compounds 3a–3o, 4a, and 4b at 72 h for DP cells and at 24 h for HaCaT and BEAS-2B cells. After the treatment period, cells were incubated with 0.5 mg/ml of MTT for 2 h. The resulting MTT product was measured at 570 nm using a spectrophotometric microplate reader. Cell viability was calculated by comparing the optical density (OD) measurements to those of the untreated control, and the results were expressed as a percentage.

[4] = system: human keratinocyte (HaCaT) cell line; assay: MTT cell viability on normal cell line HaCaT; conditions: 24 h, read-out: IC50 ± S.D. HaCaT
Procedure: as §3

[5] = system: non-tumorigenic bronchial epithelial (BEAS-2B) cell line; assay: MTT cell viability on normal cell line BEAS-2B; conditions: BEAS-2B normal cell line, 24 h, read-out: IC50 ± S.D. BEAS-2B
Procedure: as §3

Row | SMILES | IC50 ([1]; Homo sapiens, NCI-H292) [nM] | IC50 ([2]; Homo sapiens, NCI-H460) [nM] | IC50 [3] [nM] | IC50 ([4]; Homo sapiens) [nM] | IC50 ([5]; Homo sapiens) [nM] | IC50 [1] [nM] | IC50 [2] [nM] | IC50 [4] [nM] | IC50 [5] [nM]
1 | C/C=C(/C)C(=O)OC[C@H]1c2c(c(OC(=O)c3ccncc3)c(C)c3c2OCO3)C[C@H]2[C@H]3C4=C(C[C@@H]([C@H](C#N)N12)N3C)C(=O)C(C)=C(OC)C4=O [Compound 3h] | 35.3 ± 1.09 | 35.6 ± 1.64 | 4.83 ± 2.18 | 53.8 ± 7.07 | 223 ± 23.1 | – | – | – | –
2 | C/C=C(/C)C(=O)OC[C@H]1c2c(c(OC(=O)c3ccco3)c(C)c3c2OCO3)C[C@H]2[C@H]3C4=C(C[C@@H]([C@H](C#N)N12)N3C)C(=O)C(C)=C(OC)C4=O [Compound 3m] | 42.5 ± 3.84 | 42.9 ± 5.21 | 25.29 ± 0.24 | 42.1 ± 3.13 | > 250 | – | – | – | –
3 | C/C=C(/C)C(=O)OC[C@H]1c2c(c(OC(=O)[C@@H](NC(=O)OC(C)(C)C)C(C)C)c(C)c3c2OCO3)C[C@H]2[C@H]3C4=C(C[C@@H]([C@H](C#N)N12)N3C)C(=O)C(C)=C(OC)C4=O [Compound 3e] | 89.6 ± 5.03 | 76.1 ± 2.77 | 50 ± 1.49 | 80.2 ± 4.1 | > 250 | – | – | – | –
4 | CC=C(C)C(=O)OCC1c2c(c(OC(C)=O)c(C)c3c2OCO3)CC2C3C4=C(CC(C(C#N)N12)N3C)C(=O)C(C)=C(OC)C4=O (centres unmarked) [Compound 3a, 5-O-acetyl renieramycin T] | 43.4 ± 3 | 35.7 ± 2.11 | 11.7 ± 0.59 | 9.49 ± 2.12 | > 250 | – | – | – | –
5 | C/C=C(/C)C(=O)OC[C@H]1c2c(c(OC(=O)/C=C/c3cccnc3)c(C)c3c2OCO3)C[C@H]2[C@H]3C4=C(C[C@@H]([C@H](C#N)N12)N3C)C(=O)C(C)=C(OC)C4=O [Compound 3k] | 36.3 ± 2.06 | 38.8 ± 7.25 | 8.36 ± 2.31 | 9.64 ± 0.93 | 114 ± 13.2 | – | – | – | –
6 | C/C=C(/C)C(=O)OC[C@H]1c2c(c(OC(=O)c3ccc[nH]3)c(C)c3c2OCO3)C[C@H]2[C@H]3C4=C(C[C@@H]([C@H](C#N)N12)N3C)C(=O)C(C)=C(OC)C4=O [Compound 3o] | 56.9 ± 2.66 | 58.3 ± 3.56 | 50 ± 7.81 | 65.2 ± 1.52 | 220 ± 29.7 | – | – | – | –
7 | C/C=C(/C)C(=O)OC[C@H]1c2c(c(OC(=O)c3c[nH]c4ccccc34)c(C)c3c2OCO3)C[C@H]2[C@H]3C4=C(C[C@@H]([C@H](C#N)N12)N3C)C(=O)C(C)=C(OC)C4=O [Compound 3l] | 69.4 ± 1.61 | 57.9 ± 0.77 | 72.1 ± 3.01 | 109 ± 6.99 | > 250 | – | – | – | –
8 | C/C=C(/C)C(=O)OC[C@H]1c2c(c(OC(=O)c3ccc4ccccc4n3)c(C)c3c2OCO3)C[C@H]2[C@H]3C4=C(C[C@@H]([C@H](C#N)N12)N3C)C(=O)C(C)=C(OC)C4=O [Compound 3i, 5-O-(2-quinolinecarbonyl) ester] | 36.5 ± 1.82 | 43.3 ± 4.29 | 8.77 ± 1.94 | 28 ± 3.76 | 151 ± 19 | – | – | – | –
9 | N.N.[Cl][Pt][Cl] [Cisplatin, reference compound] | – | – | 10800 | – | – | 4230 | 3860 | 14300 | > 20000
10 | C/C=C(/C)C(=O)OC[C@H]1c2c(c(OC(=O)[C@H](C)NC(=O)OC(C)(C)C)c(C)c3c2OCO3)C[C@H]2[C@H]3C4=C(C[C@@H]([C@H](C#N)N12)N3C)C(=O)C(C)=C(OC)C4=O [Compound 3d, 5-O-(N-Boc-L-alanine)-renieramycin T] | 39.5 ± 1.18 | 33 ± 1.55 | 25.8 ± 1.05 | 58.5 ± 6.68 | 232 ± 26.1 | – | – | – | –
